Laboratory results from article PMC5063576, “High Potency VEGFRs/MET/FMS Triple Blockade by TAS-115 Concomitantly Suppresses Tumor Progression and Bone Destruction in Tumor-Induced Bone Disease Model with Lung Carcinoma Cells” (PLoS ONE, 2016).

What was measured:
[1] = target: T1, Recombinant human FMS dephosphorylated with lambda phosphatase (dephospho-rhFMS) (Homo sapiens, UniProt P07333); experiment: In vitro kinase assay, recombinant dephospho-FMS (LANCE Ultra TR-FRET); format: biochemical; conditions: 100 μM ATP
T1 sequence (P07333 538-972): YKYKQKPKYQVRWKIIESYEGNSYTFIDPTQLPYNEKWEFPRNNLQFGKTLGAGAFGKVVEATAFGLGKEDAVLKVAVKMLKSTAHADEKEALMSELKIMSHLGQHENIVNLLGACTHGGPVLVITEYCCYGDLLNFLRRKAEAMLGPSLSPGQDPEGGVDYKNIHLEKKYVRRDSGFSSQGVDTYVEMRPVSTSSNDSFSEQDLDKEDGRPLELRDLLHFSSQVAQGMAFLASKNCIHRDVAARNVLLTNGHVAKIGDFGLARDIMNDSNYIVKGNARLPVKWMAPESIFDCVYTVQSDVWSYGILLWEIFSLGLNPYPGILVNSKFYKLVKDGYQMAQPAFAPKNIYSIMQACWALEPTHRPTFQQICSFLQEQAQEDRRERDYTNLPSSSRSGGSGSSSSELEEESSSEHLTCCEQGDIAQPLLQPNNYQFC
Procedure: Enzyme inhibition studies were performed using LANCE® Ultra TR-FRET assay technology. Briefly, 0.03 μg/mL dephospho-rhFMS and 100 nM ULightTM-poly GT (4:1) (PerkinElmer) were mixed and incubated for 40 min at 25°C in 10 μL of reaction mixture containing 100 μM ATP, 15 mM tris (hydroxymethyl) aminomethane (Tris (pH 7.5)), 0.01% (v/v) Tween 20, 5 mM MgCl2, 2 mM dithiothreitol and various concentrations of the test compound. […] By referring to the TR-FRET signals of positive (no inhibitor) and negative (EDTA was added before the reaction was started) control wells, the percent inhibition of each well was calculated and the half-maximal inhibitory concentration (IC50) value was determined using a four-parameter sigmoidal equation. The assay of MET and VEGFR2 kinase activity was performed as described previously.

[2] = system: FMS phosphorylation in human acute monocytic THP-1 leukemia cells; experiment: M-CSF-induced FMS phosphorylation in THP-1 cells (immunoblotting); format: cell-based; conditions: 2 h, 120 min compound incubation, 30 ng/mL M-CSF, read-out: cellular IC50 against M-CSF-induced FMS phosphorylation
Procedure: Supplementary file pone.0164830.s005.tif: S5 Fig The inhibition of the FMS signaling pathway in human acute monocytic leukemia THP-1 cells by TAS-115. […] After incubation with the compounds for 120 min, THP-1 cells were stimulated with 30 ng/mL of M-CSF and lysed at 1 min post M-CSF stimulation. Specific proteins in the cell lysates were detected using immune blotting and were quantified using Multi Gauge Ver 3.2 (FUJIFILM). IC50 values were calculated using Xlfit 5.3.0.8 (CTC Life Science Corporation, Tokyo, Japan). (TIF) Click here for additional data file.

[3] = system: A549-Luc-BM1 cells in the mouse tibia; experiment: Tumor-induced bone disease model, intra-tibial A549-Luc-BM1, bioluminescence imaging; format: in vivo, BALB/c nude mice; conditions: day 28; 4 weeks; oral once daily TAS-115 200 mg/kg, cabozantinib 15 mg/kg, sunitinib 40 mg/kg, crizotinib 100 mg/kg; ZA 0.2 mg/kg s.c. twice weekly
Procedure: Tumor growth in the tibiae was monitored by bioluminescence imaging using an IVIS Lumina II Imaging System (PerkinElmer, MA). […] Images were analyzed using the Living Image 3.1 software (PerkinElmer). Total photon flux (TP) was calculated by summation of the photon flux of ventral and right lateral images. One week post tumor implantation, 8–9 animals were allocated to each experimental group by a stratified randomization method with SAS version 9.2 (SAS Institute Japan, Tokyo, Japan) using TP as an allocation parameter, following which drug treatment was then started. […] The doses of each drug were selected based on the maximum tolerated dose (MTD) in in-house studies (data not shown). […] Zoledronic acid (ZA) was subcutaneously injected twice weekly for 4 weeks at a dose of 0.2 mg/kg, which was a previously reported efficacious dose. The allocation day was set as day 0, and drug administration was initiated from day 1. As an indicator of changes in tumor growth during the dosing period, relative total photon flux (RTP), was calculated according to the following formula: RTPday n = (TP on each measurement day) / (TPday 0) × 100. TPday 0 is the TP on the allocation day.

[4] = Body weight change in the bone disease model; format: in vivo, BALB/c nude mice; conditions: 4 weeks of treatment; TAS-115 200 mg/kg, crizotinib 100 mg/kg, sunitinib 40 mg/kg with crizotinib 100 mg/kg, oral once daily
Procedure: Changes in body weight (BW) during the dosing period were determined using body weight change (BWC; %) as an indicator, which was calculated using the following formula: BWC; % = 100 × ((BW on each measurement day)–(BWday 0)) / (BWday 0). BWday 0 is the BW on the allocation day. The schedule for the in vivo study is depicted in the Supporting Information (S1 Fig).

[5] = system: M-CSF dependent bone marrow macrophages (MDBMs); experiment: In vitro osteoclast differentiation assay (TRAP activity); format: cell-based, mouse; conditions: MDBMs with hM-CSF and rhsRANKL for 4 days
Procedure: To prepare macrophage colony-stimulating factor (M-CSF) dependent bone marrow macrophages (MDBMs), bone marrow cells were obtained from the femurs of male BALB/c mice (CLEA Japan) and adherent cells were cultured with human M-CSF (hM-CSF; 10000 U/mL) for 6 days. MDBMs were collected and cultured with hM-CSF (10000 U/mL) and recombinant human soluble RANKL (rhsRANKL)-GST (5 nM) for 4 days (25000 cells/well in a 96 well flat plate) for induction of differentiation into osteoclasts. Test compounds were then added to the culture media at the indicated concentration. TRAP activities were measured using the commercially available TRACP and ALP Assay Kit (TAKARA BIO INC).

- IC50 [1]: 15 nM
- IC50 [2]: 12 nM
Compound: CNC(=O)c1cc2c(Oc3ccc(NC(=S)NC(=O)Cc4ccccc4)cc3F)ccnc2cc1OC [TAS-115, 4-[2-fluoro-4-[[[(2-phenylacetyl)amino]thioxomethyl]amino]-phenoxy] -7-methoxy-N-methyl-6-quinolinecarboxamide]
- tumor growth inhibition percentage (TGI) [3]: 85%
- effect on body weight [4]: did not cause body weight loss
- concentration that potently inhibited / markedly affected RANKL and M-CSF-induced mouse osteoclast formation [5]: 0.3 µM
